As usually defined, the pIC50 is −log10 of the IC50, conventionally taken in molar units. A low value points to a high IC50.

The target in the assay is T1, menin/MLL binding (biotinylated wild-type or mutated menin and MLL-AF9 fusion protein) (Homo sapiens, UniProt O00255).
T1 construct: biotinylated (1) wild-type menin or (2) mutated menin (described in Nature (2012) Vol. 482, pp. 542-548); fused on or other part: Biotin attached chemically (Sulfo-NHS-Biotin); no fused second protein is printed for menin
T1 sequence (O00255 1-459 limits assumed): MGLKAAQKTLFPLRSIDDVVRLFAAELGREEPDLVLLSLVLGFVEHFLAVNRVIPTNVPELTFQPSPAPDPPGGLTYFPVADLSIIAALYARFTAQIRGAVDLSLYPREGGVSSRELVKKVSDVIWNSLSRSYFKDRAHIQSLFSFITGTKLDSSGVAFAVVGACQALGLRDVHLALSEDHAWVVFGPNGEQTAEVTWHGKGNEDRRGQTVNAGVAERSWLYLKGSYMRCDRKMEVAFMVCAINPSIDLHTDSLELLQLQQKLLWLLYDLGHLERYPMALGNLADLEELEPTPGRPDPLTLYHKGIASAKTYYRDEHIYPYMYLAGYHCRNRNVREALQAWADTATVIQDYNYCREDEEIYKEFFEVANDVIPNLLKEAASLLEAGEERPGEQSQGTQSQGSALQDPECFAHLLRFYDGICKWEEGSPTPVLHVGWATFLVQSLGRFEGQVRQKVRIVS
As to the kind of experiment: Assay 1 (Binding Assay): AlphaLISA menin/MLL binding. The conditions noted are these: 5 nM biotinylated menin, MLL-AF9-FLAG lysate. As for the experimental part:
Potencies of inhibitor compounds against menin/MLL binding were assessed by AlphaLISA assay using biotinylated (1) wild-type menin or (2) mutated menin (described in Nature (2012) Vol. 482, pp. 542-548) and MLL-AF9 fusion protein bearing a FLAG epitope at its C-terminus. Menin proteins were expressed in E. coli and covalently modified with biotin using EZ-Link™ Sulfo-NHS-Biotin (ThermoFisher Cat. No. 21217) according to manufacturer's protocol. MLL1-1,396 fused to AF91-92 and the C-terminal FLAG peptide was expressed in HEK293 cells and used as a lysate cleared at 21,000×g for 10 min.
Compounds (2 μL of solutions in DMSO) were dispensed in white 96-well half-area plates (Corning Cat. No. 3693) and incubated for 30 min at RT with 5 nM biotinylated menin and appropriate amount of MLL-AF9-FLAG lysate in 40 μL of 50 mM Tris-HCl buffer pH 7.4 containing 5% (v/v) DMSO, 50 mM NaCl, 0.01% (w/v) bovine serum albumin (BSA) and 1 mM DTT. To this incubation mixture, 40 μl of AlphaLISA anti-FLAG acceptor (PerkinElmer Cat. No. AL112C) and streptavidin donor (PerkinElmer Cat. No. 6760002) beads (10 μg/mL each) was added and incubation continued at RT for 60 min. Alpha (amplified luminescent proximity homogeneous assay) signal was measured on an Envision multi-label plate reader at the end of the incubation. All steps were conducted under dim fluorescent light.
These percent inhibition values were regressed against compound concentrations in the assay using four parameter logit non-linear curve fitting (XLFit, IDBS). The IC50 values were derived from the curve fitting as inflection points on the dose-response curves and are set out in Table 14 below.
Background: In Alpha technology, singlet oxygen from a donor bead excites a nearby acceptor bead.

pIC50: −log10 of the molar value.

In the case of `CC(C)N(C)C(=O)c1cc(F)ccc1-n1cc([C@H]2CC[C@@H](N3CC[C@@H](CO)C3)CC2)c2ccncc21` [Example 103, 5-fluoro-2-(3-(cis-4-((R)-3-(hydroxymethyl)pyrrolidin-1-yl)cyclohexyl)-1H-pyrrolo[2,3-c]pyridin-1-yl)-N-isopropyl-N-methylbenzamide], the pIC50 is more than 7.00. Under `CC(C)N(C)C(=O)c1cc(F)ccc1-n1cc(C2CCC(N3CCNC(=O)C3)CC2)c2ccncc21` (stereo not drawn) [Example 116, 5-fluoro-N-isopropyl-N-methyl-2-(3-(4-(3-oxopiperazin-1-yl)cyclohexyl)-1H-pyrrolo[2,3-c]pyridin-1-yl)benzamide] stands 6.00 to 7.00. In turn, `Cc1c(CN2CCC(c3cn(-c4ccccc4)c4cncnc34)CC2)ccc2[nH]c(C#N)cc12` [Example 72, 4-methyl-5-((4-(5-phenyl-5H-pyrrolo[3,2-d]pyrimidin-7-yl)piperidin-1-yl)methyl)-1H-indole-2-carbonitrile] showed a pIC50 not above 6.00. With `CC(=O)Nc1ccc(CN2CCC(c3cn(-c4ccc(F)cc4C(=O)N(C)C(C)C)c4cnccc34)CC2)cc1` [Example 22, 2-(3-(1-(4-acetamidobenzyl)piperidin-4-yl)-1H-pyrrolo[2,3-c]pyridin-1-yl)-5-fluoro-N-isopropyl-N-methylbenzamide], the pIC50 was more than 7.00.

For `CC(C)N(C)C(=O)c1cc(F)ccc1-n1cc([C@H]2CC[C@@H](N3CC[C@H](CO)C3)CC2)c2ccncc21` [Example 105, 5-fluoro-2-(3-(cis-4-((S)-3-(hydroxymethyl)pyrrolidin-1-yl)cyclohexyl)-1H-pyrrolo[2,3-c]pyridin-1-yl)-N-isopropyl-N-methylbenzamide], the pIC50 was 6.00 to 7.00. As to `CC(C)N(C)C(=O)c1cc(F)ccc1-n1cc(C2CCC(N(C)CC3CCC(NS(C)(=O)=O)CC3)CC2)c2ccncc21` (single isomer, unassigned) [Example 128A, 5-fluoro-N-isopropyl-N-methyl-2-(3-(4-(methyl((4-(methylsulfonamido)cyclohexyl)methyl)amino)cyclohexyl)-1H-pyrrolo[2,3-c]pyridin-1-yl)benzamide], the pIC50 was more than 7.00.

Turning to `CC(C)N(C)C(=O)c1cc(F)ccc1-n1cc([C@H]2CC[C@@H](N3CCCCC3)CC2)c2ccncc21` [Example 107], the pIC50 is more than 7.00.

In turn, `CC(C)N(C)C(=O)c1cc(F)ccc1-n1cc(C2CCC3(CC2)CNC3)c2ccncc21` [Example 51, 2-(3-(2-azaspiro[3.5]nonan-7-yl)-1H-pyrrolo[2,3-c]pyridin-1-yl)-5-fluoro-N-isopropyl-N-methylbenzamide] showed a pIC50 of 6.00 to 7.00. Take `CC(C)N(C)C(=O)c1cc(F)ccc1-n1c(=O)n(C2CCN(Cc3ccc4[nH]c(=O)[nH]c4c3)CC2)c2ccncc21` [Example 79, 5-fluoro-N-isopropyl-N-methyl-2-(2-oxo-1-(1-((2-oxo-2,3-dihydro-1H-benzo[d]imidazol-5-yl)methyl)piperidin-4-yl)-1,2-dihydro-3H-imidazo[4,5-c]pyridin-3-yl)benzamide]: the pIC50 was not above 6.00. As for `Cc1c(CN2CCC(c3cn(-c4ccc(Cl)cc4)c4cnccc34)CC2)ccc2[nH]c(C#N)cc12` [Example 38, 5-((4-(1-(4-chlorophenyl)-1H-pyrrolo[2,3-c]pyridin-3-yl)piperidin-1-yl)methyl)-4-methyl-1H-indole-2-carbonitrile], the figure is 6.00 to 7.00; as for `CC(C)N(C)C(=O)c1cc(F)ccc1-n1cc([C@H]2CC[C@H](NC(=O)C3CCCCC3)CC2)c2ccncc21` [Example 130, 2-(3-(trans-4-(cyclohexanecarboxamido)cyclohexyl)-1H-pyrrolo[2,3-c]pyridin-1-yl)-5-fluoro-N-isopropyl-N-methylbenzamide], not above 6.00. `CC(C)N(C)C(=O)c1cc(F)ccc1-n1cc(C2CCN(Cc3ccc(C(F)(F)F)cc3)CC2)c2ccncc21` [Example 11, 5-fluoro-N-isopropyl-N-methyl-2-(3-(1-(4-(trifluoromethyl)benzyl)piperidin-4-yl)-1H-pyrrolo[2,3-c]pyridin-1-yl)benzamide] showed a pIC50 of more than 7.00. On to `CC(C)N(C)C(=O)c1cc(F)ccc1-n1cc([C@H]2CC[C@H](N3CC(CO)C3)CC2)c2ccncc21` [Example 98, 5-fluoro-2-(3-(trans-4-(3-(hydroxymethyl)azetidin-1-yl)cyclohexyl)-1H-pyrrolo[2,3-c]pyridin-1-yl)-N-isopropyl-N-methylbenzamide], for which the pIC50 is more than 7.00.

In the case of `CC(C)N(C)C(=O)c1cc(F)ccc1-n1cc(-c2ccc3c(c2)CCN(C)C3)c2ccncc21` [Example 52, 5-fluoro-N-isopropyl-N-methyl-2-(3-(2-methyl-1,2,3,4-tetrahydroisoquinolin-6-yl)-1H-pyrrolo[2,3-c]pyridin-1-yl)benzamide], the pIC50 is 6.00 to 7.00. In turn, `CC(C)N(C)C(=O)c1cc(F)ccc1-n1cc(C2C[C@@H](C)N[C@@H](C)C2)c2ccncc21` (stereo partly drawn) [Int. 13, 2-(3-((2S,6R)-2,6-dimethylpiperidin-4-yl)-1H-pyrrolo[2,3-c]pyridin-1-yl)-5-fluoro-N-isopropyl-N-methylbenzamide] had a pIC50 of 6.00 to 7.00.

Turning to `CC(C)N(C)C(=O)c1cc(F)ccc1-n1cc(C2CCN(C(=O)Cc3ccccc3)CC2)c2ccncc21` [Example 133, 5-fluoro-N-isopropyl-N-methyl-2-(3-(1-(2-phenylacetyl)piperidin-4-yl)-1H-pyrrolo[2,3-c]pyridin-1-yl)benzamide], the negative logarithm of the IC50 (pIC50) was 6.00 to 7.00.

As to `CC(C)N(C)C(=O)c1cc(F)ccc1-n1cc(C2CCC(O)CC2)c2ccncc21` (single isomer, unassigned) [Example 53A, 5-fluoro-2-(3-(4-hydroxycyclohexyl)-1H-pyrrolo[2,3-c]pyridin-1-yl)-N-isopropyl-N-methylbenzamide], the pIC50 was not above 6.00. With `CC(C)N(C)C(=O)c1cc(F)ccc1-n1c(=S)n(C2CCCN(Cc3ccc4[nH]c(=O)[nH]c4c3)C2)c2ccncc21` (stereo not drawn) [Example 135, 5-fluoro-N-isopropyl-N-methyl-2-(1-(1-((2-oxo-2,3-dihydro-1H-benzo[d]imidazol-5-yl)methyl)piperidin-3-yl)-2-thioxo-1,2-dihydro-3H-imidazo[4,5-c]pyridin-3-yl)benzamide], the pIC50 is 6.00 to 7.00. Regarding `CC(C)N(C)C(=O)c1cc(F)ccc1-n1cc(C2CCCNCC2)c2ccncc21` (stereo not drawn) [Example 41A, 2-(3-(azepan-4-yl)-1H-pyrrolo[2,3-c]pyridin-1-yl)-5-fluoro-N-isopropyl-N-methylbenzamide], the pIC50 is 6.00 to 7.00. As for `CC(C)N(C(=O)c1cc(F)ccc1-n1cc(C2CCC(N3CCC4(CC(NS(C)(=O)=O)C4)C3)CC2)c2ccncc21)C(C)C` (single isomer, unassigned) [Example 139, 5-fluoro-N,N-diisopropyl-2-(3-(4-(2-(methylsulfonamido)-6-azaspiro[3.4]octan-6-yl)cyclohexyl)-1H-pyrrolo[2,3-c]pyridin-1-yl)benzamide], the figure is more than 7.00. For `CC(C)N(C)C(=O)c1cc(F)ccc1-n1cc(C2CCN(C(=O)C3Cc4ccccc4C3)CC2)c2ccncc21` [Example 132, 2-(3-(1-(2,3-dihydro-1H-indene-2-carbonyl)piperidin-4-yl)-1H-pyrrolo[2,3-c]pyridin-1-yl)-5-fluoro-N-isopropyl-N-methylbenzamide], the pIC50 is more than 7.00. The compound `CC(C)N(C)C(=O)c1cc(F)ccc1-n1cc([C@H]2CC[C@H](NC(=O)c3ccccc3)CC2)c2ccncc21` [Example 129, 2-(3-(trans-4-benzamidocyclohexyl)-1H-pyrrolo[2,3-c]pyridine-1-yl)-5-fluoro-N-isopropyl-N-methylbenzamide] showed a pIC50 not above 6.00. Compound `CC(C)N(C(=O)c1cc(F)ccc1-n1cc(C2CCCN(C(=O)OC(C)(C)C)C2)c2ccncc21)C(C)C` (stereo not drawn) [Int. 10, tert-butyl 3-(1-(2-(diisopropylcarbamoyl)-4-fluorophenyl)-1H-pyrrolo[2,3-c]pyridin-3-yl)piperidine-1-carboxylate] had a pIC50 not above 6.00. Under `CC(C)N(C)C(=O)c1cc(F)ccc1-n1cc(C2CCC3(CC2)CN(C)C3)c2ccncc21` [Example 51A, 5-fluoro-N-isopropyl-N-methyl-2-(3-(2-methyl-2-azaspiro[3.5]nonan-7-yl)-1H-pyrrolo[2,3-c]pyridin-1-yl)benzamide] stands 6.00 to 7.00.
